# Test results taken from patent US10745393B2, “Small molecular probes, processes and use thereof” (JAWAHARLAL NEHRU CENTRE FOR ADVANCED SCIENTIFIC RESEARCH, priority 2014, dated 2020).
# How the values were obtained:
# [1] = system: Aβ plaques in CSF samples; assay: Detection of amyloid plaques in CSF samples by fluorescence; settings: QC 10 μM
# Protocol: In the present experiment, Amyloid plaques in the CSF sample are detected as it is a hallmark of AD using ThT and QC. […] QC (10 μM) is used to detect Aβ plaques in the same set of CSF samples, which show the same trend as Thioflavin assay and stains CSF3, CSF5, CSF6 and CSF12 samples (FIG. 57 and table 6).
# [2] = Partition coefficient (Log P), shake flask method; assay type: physicochemical; settings: n-octanol/water
# Protocol: Log P value is calculated by Shake flask (or tube) method. To an equilibrated solution of n-octanol and water in a separating funnel, probe QC/TC is added and agitated well. The solution is left for 30 minutes for proper separation of immiscible solvents, then the distribution of QC/TC is calculated using UV spectroscopy and the obtained concentrations are used in below equation to obtain log P value log P=log [Conc. of QC or TC in n-octanol/Conc. of QC or TC in water]
# Aβ42 monomers = Aβ42 monomers (Homo sapiens, UniProt P05067); assay: Absorption / fluorescence response with Aβ monomers; assay type: binding; settings: QC 2 μM, Aβ monomers 10 μM
# Aβ42 monomers, sequence (P05067 672-713 limits assumed): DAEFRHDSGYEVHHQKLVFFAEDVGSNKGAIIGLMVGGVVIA
# [3] = molecular target: ThT/Aβ42 aggregate complex (Homo sapiens, UniProt P05067); assay: ThT displacement / FRET assay; assay type: binding; settings: decay at 483 nm, enhancement at 654 nm
# ThT/Aβ42 aggregate complex, sequence (P05067 672-713 limits assumed, one chain of several): as the sequence (P05067 672-713 limits assumed) above
# [4] = molecular target: T1, islet amyloid polypeptide (IAPP) aggregates (Homo sapiens, UniProt P10997); assay: Selectivity: fluorescence with IAPP aggregates; assay type: binding; settings: IAPP aggregates 20 μM
# T1 construct: A 0.1 mg (Merck, calbiochem) sample of amylin is dissolved in 100 μL of acetonitrile; purchased Merck, calbiochem
# T1 sequence (P10997 34-70 limits assumed): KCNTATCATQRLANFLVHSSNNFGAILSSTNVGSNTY
# [5] = molecular target: α-Synuclein (α-Syn) aggregates (Homo sapiens, UniProt P37840); assay: Selectivity: fluorescence with α-synuclein aggregates; assay type: binding
# [6] = Absorption, emission and quantum yield of probes without Aβ42 aggregates; assay type: physicochemical
# calf thymus DNA = assay: Selectivity of QC: fluorescence with calf thymus DNA; assay type: binding; settings: QC 2 μM, DNA 20 μM
# From the text: Selective fluorescence enhancement is shown by QC probe, with strong binding affinity. Probe QC has very good lipophilicity to cross the BBB and serum stability. QC detects Aβ plaques in CSF samples of patient which can be used in early diagnosis of Alzheimer's Disease. Probe QC is a molecular rotor moiety containing an electron withdrawing group in conjugation with an electron releasing group with a freely rotatable bond. Prevention of internal rotation in QC by surrounding medium rigidity, leads to a decrease in the non-radiative decay rate and an increase in fluorescence emission. […] In presence of Aβ42 aggregates (10 μM) prepared in PBS buffer (10 mM), absorption maxima at 521 nm (λex) and a blue shifted emission maxima (10 nm) with huge (>100 fold) fluorescence enhancement ([…]=654 nm) and a large stoke shift of ˜130 nm is observed (FIG. 47). […] These peptides are known to form fibrillar aggregates similar to Aβ42 aggregates. […] No such changes are observed in case of IAPP aggregates.
# Aβ42 aggregates [7] = molecular target: T2, Aβ42 aggregates (Homo sapiens, UniProt P05067); assay: Absorption / fluorescence response with Aβ42 fibrillar aggregates; assay type: binding
# T2 sequence (P05067 672-713 limits assumed): as the sequence (P05067 672-713 limits assumed) above
# [8] = In vitro stability in human blood serum (HPLC); assay type: in vitro ADME; settings: 60 min incubation with human blood serum at 37° C.
# Protocol: The in vitro stability of QC in […] is determined by incubating QC (10 μM in H2O, 50 μM) with 300 μL of human blood serum at 37° C. for 30 and 60 min. Proteins are precipitated by adding 500 μL of acetonitrile […] at 5000 rpm for 5 min at 4° C. The supernatant is collected. Approximately 0.1 mL of the supernatant solution is analyzed using HPLC.
# Aβ42 aggregates [9] = molecular target: T2, Aβ42 aggregates; assay: Binding saturation assay (fluorescence) for binding constant; settings: fluorescence saturation curve; Aβ42 aggregates 10 μM (QC) or 2 μM (TC); read-out: dissociation constant Kd
# [10] = system: Aβ42 aggregates expressed in S. cerevisiae (BY4741); assay type: cell-based
# [11] = system: α-synuclein (A30P) aggregates expressed in S. cerevisiae (BY4741); assay type: cell-based; settings: QC 5 μM
# [12] = molecular target: bovine serum albumin (BSA) (Bos taurus, UniProt P02769); assay: Selectivity: fluorescence with BSA; assay type: binding
# bovine serum albumin (BSA), sequence (P02769 25-607): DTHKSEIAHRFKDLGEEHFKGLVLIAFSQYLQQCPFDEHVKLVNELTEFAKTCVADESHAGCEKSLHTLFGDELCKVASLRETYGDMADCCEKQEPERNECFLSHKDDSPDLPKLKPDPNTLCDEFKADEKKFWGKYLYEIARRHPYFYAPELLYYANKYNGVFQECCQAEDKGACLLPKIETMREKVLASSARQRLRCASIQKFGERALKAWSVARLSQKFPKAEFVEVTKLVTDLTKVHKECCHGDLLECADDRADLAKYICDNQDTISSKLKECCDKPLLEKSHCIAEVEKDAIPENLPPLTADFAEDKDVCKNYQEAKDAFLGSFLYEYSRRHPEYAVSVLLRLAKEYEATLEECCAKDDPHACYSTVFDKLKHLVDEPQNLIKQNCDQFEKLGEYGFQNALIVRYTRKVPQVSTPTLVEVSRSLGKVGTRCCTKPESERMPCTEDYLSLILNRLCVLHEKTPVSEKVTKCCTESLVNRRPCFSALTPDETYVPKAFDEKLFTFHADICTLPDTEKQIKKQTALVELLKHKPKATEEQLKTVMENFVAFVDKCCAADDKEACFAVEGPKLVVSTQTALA
# [13] = cresyl violet perchlorate standard
smiles,measurement,setting,value
"CCN(CC)c1ccc2cc(/C=C/c3ccc4ccccc4[n+]3C)c(=O)oc2c1.[I-] [QC, 2-(2-(7-(diethylamino)-2-oxo-2H-chromen-3-yl)vinyl)-1-methylquinolin-1-ium Iodide]",Normalized fluorescence intensity (QC),[1]; sample CSF1,12.50
same,Normalized fluorescence intensity (QC),[1]; sample CSF2,3.24
same,Normalized fluorescence intensity (QC),[1]; sample CSF3,29.60
same,Normalized fluorescence intensity (QC),[1]; sample CSF4,10.70
same,Normalized fluorescence intensity (QC),[1]; sample CSF5,51.50
same,Normalized fluorescence intensity (QC),[1]; sample CSF6,29.60
same,Normalized fluorescence intensity (QC),[1]; sample CSF7,6.40
same,Normalized fluorescence intensity (QC),[1]; sample CSF8,11.08
same,Normalized fluorescence intensity (QC),[1]; sample CSF9,6.30
same,Normalized fluorescence intensity (QC),[1]; sample CSF10,5.40
same,Normalized fluorescence intensity (QC),[1]; sample CSF11,6.70
same,Normalized fluorescence intensity (QC),[1]; sample CSF12,44.40
same,Normalized fluorescence intensity (QC),[1]; sample CSF13,3.20
same,Normalized fluorescence intensity (QC),[1]; sample CSF14,12.30
same,logP,[2],2.4
same,absorption maxima in presence of Aβ monomers,Aβ42 monomers,521 nm
same,fluorescence enhancement in presence of Aβ monomers,Aβ42 monomers; λem=654 nm,~7 fold
same,displacement of ThT from ThT/Aβ42 aggregate complex,[3],effective displacement of ThT by QC
same,fluorescence enhancement with IAPP aggregates,[4],negligible enhancement in fluorescence
same,blue shift of λem maxima with α-Syn aggregates,"[5]; QC 2 μM, α-Syn 20 μM",~9 nm
same,fluorescence enhancement with α-Syn aggregates,[5]; α-Syn aggregates 20 μM,negligible enhancement in fluorescence
same,absorption maximum in absence of Aβ42 aggregates,"[6]; PBS buffer (10 mM, pH 7.4)",516 nm
same,emission maximum in absence of Aβ42 aggregates,"[6]; PBS buffer, very weak fluorescence",664 nm
same,"quantum yield, unbound",[6]; [13],0.08
same,fluorescence enhancement with calf thymus DNA,calf thymus DNA,slight fluorescence enhancement
same,Stokes shift upon binding to Aβ42 aggregates,Aβ42 aggregates [7],~130 nm
same,blue shift of emission maxima in presence of Aβ42 aggregates,"Aβ42 aggregates [7]; QC 2 μM, Aβ42 aggregates 10 μM",10 nm
same,absorption maxima in presence of Aβ42 aggregates,"Aβ42 aggregates [7]; QC 2 μM, Aβ42 aggregates 10 μM, PBS 10 mM",521 nm
same,quantum yield after binding to Aβ42 aggregates,Aβ42 aggregates [7]; [13],0.36
same,emission maximum in presence of Aβ42 aggregates,Aβ42 aggregates [7]; probe 2 μM,654 nm
same,fluorescence enhancement in presence of Aβ42 aggregates,"Aβ42 aggregates [7]; probe 2 μM, PBS buffer",> 100 fold
same,probe identified intact,[8],more than 97%
same,Kd,Aβ42 aggregates [9],82 ± 2.3 nM
same,fluorescence correlation coefficient with GFP tagged Aβ42 aggregates,[10]; QC 5 μM,83.7%
same,staining of S. cerevisiae expressing Aβ42 aggregates,"[10]; QC 5 μM, live cells",stains S. cerevisiae expressing Aβ42 aggregates selectively
same,mean Pearson co-localization coefficient,[10]; live cells counted (n=50),0.837
same,staining of S. cerevisiae strains with α-synuclein (A30P) aggregates,[11],not stained
same,fluorescence enhancement with BSA,[12]; BSA 20 μM,considerable fluorescence enhancement is not observed
same,shift of emission with BSA,[12]; QC 2 μM,~34 nm
same,λem with BSA,[12]; QC 2 μM,616 nm
